Reference: PubChem BioAssay AID248 (DTP/NCI, 2004)
“And” between values parts separate entries of the source, which are not always exact repeats. Equal entries are not always repeated. Inconclusive results and toxic doses are left out.

Test system: L1210 leukemia ip in BDF1 mice, survival T/C
Test: NCI In Vivo Anticancer Drug Screen. Data for tumor model L1210 Leukemia (intraperitoneal) in B6D2F1 (BDF1) mice
Details: endpoint: mean survival time, higher = longer survival
Method in brief: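 Ratio derived from survival: compound-dosed mice over vehicle-dosed mice, all bearing a transplantable tumor.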

[1] = dose: 25.0 mg/kg/injection, schedule: Q01DX009 (ip), vehicle: saline
[2] = dose: 50.0 mg/kg/injection, schedule: Q01DX009 (ip), vehicle: saline
[3] = dose: 50.0 mg/kg/injection, schedule: Q04DX002 (ip), vehicle: Klucel (hydroxypropylcellulose) (HPC)
[4] = dose: 100.0 mg/kg/injection, schedule: Q04DX002 (ip), vehicle: Klucel (hydroxypropylcellulose) (HPC)
[5] = dose: 100.0 mg/kg/injection, schedule: Q01DX001 (ip), vehicle: carboxymethylcellulose (CMC)
[6] = dose: 200.0 mg/kg/injection, schedule: Q01DX001 (ip), vehicle: carboxymethylcellulose (CMC)
[7] = dose: 400.0 mg/kg/injection, schedule: Q01DX001 (ip), vehicle: carboxymethylcellulose (CMC)
[8] = dose: 100.0 mg/kg/injection, schedule: Q01DX009 (ip), vehicle: saline
[9] = dose: 100.0 mg/kg/injection, schedule: Q04DX003 (ip), vehicle: saline
[10] = dose: 200.0 mg/kg/injection, schedule: Q04DX003 (ip), vehicle: saline
[11] = dose: 400.0 mg/kg/injection, schedule: Q04DX003 (ip), vehicle: saline
[12] = dose: 12.5 mg/kg/injection, schedule: Q01DX009 (ip), vehicle: Klucel (hydroxypropylcellulose) (HPC)
[13] = dose: 25.0 mg/kg/injection, schedule: Q01DX009 (ip), vehicle: Klucel (hydroxypropylcellulose) (HPC)
[14] = dose: 50.0 mg/kg/injection, schedule: Q01DX009 (ip), vehicle: Klucel (hydroxypropylcellulose) (HPC)
[15] = dose: 100.0 mg/kg/injection, schedule: Q04DX003 (ip), vehicle: Klucel (hydroxypropylcellulose) (HPC)
[16] = dose: 100.0 mg/kg/injection, schedule: Q01DX001 (ip), vehicle: saline
[17] = dose: 200.0 mg/kg/injection, schedule: Q01DX001 (ip), vehicle: saline
[18] = dose: 400.0 mg/kg/injection, schedule: Q01DX001 (ip), vehicle: saline
[19] = dose: 200.0 mg/kg/injection, schedule: Q04DX003 (ip), vehicle: Klucel (hydroxypropylcellulose) (HPC)
[20] = dose: 400.0 mg/kg/injection, schedule: Q04DX003 (ip), vehicle: Klucel (hydroxypropylcellulose) (HPC)

Structure (SMILES): CC(C)(C)C1=C[P+](c2ccccc2)(c2ccccc2)C(C(C)(C)C)=C[P+]1(c1ccccc1)c1ccccc1
- T/C (dose: 12.5 mg/kg/injection, schedule: Q01DX009 (ip), vehicle: saline): 94 % of control
- T/C (dose: 12.5 mg/kg/injection, schedule: Q04DX003 (ip), vehicle: saline): 96 % of control
- T/C [1]: 104 % of control
- T/C (dose: 25.0 mg/kg/injection, schedule: Q04DX003 (ip), vehicle: saline): 122 % of control
- T/C [2]: 100 % of control
- T/C (dose: 50.0 mg/kg/injection, schedule: Q04DX003 (ip), vehicle: saline): 108 % of control

Structure (SMILES): CCOC(=O)C1Nc2ccc3ccccc3c2NC1=O (stereo not drawn)
- T/C [3]: 93 % of control
- T/C [4]: 97 % of control
- T/C (dose: 200.0 mg/kg/injection, schedule: Q04DX002 (ip), vehicle: Klucel (hydroxypropylcellulose) (HPC)): 90 % of control

Structure (SMILES): O=c1[nH]nc(S(=O)(=O)c2ccccc2)c(=O)[nH]1
- T/C [5]: 95 % of control
- T/C [6]: 95 % of control
- T/C [7]: 95 % of control

Structure (SMILES): O=C(O)C(O)c1ccc(Cl)cc1 (stereo not drawn)
- T/C [8]: 96 % of control
- T/C (dose: 200.0 mg/kg/injection, schedule: Q01DX009 (ip), vehicle: saline): 91 % of control

Structure (SMILES): ClC12CCC(Cl)(CC1)C2(Cl)Cl
- T/C [1]: 95 % of control
- T/C [2]: 103 % of control
- T/C [8]: 96 % of control
- T/C [9]: 98 % of control
- T/C [10]: 95 % of control
- T/C [11]: 98 % of control

Structure (SMILES): CS(=O)(=O)OCCCCCCCCOS(C)(=O)=O
- T/C (dose: 3.0 mg/kg/injection, schedule: Q01DX009 (ip), vehicle: Klucel (hydroxypropylcellulose) (HPC)): 100 % of control
- T/C (dose: 5.0 mg/kg/injection, schedule: Q01DX009 (ip), vehicle: Klucel (hydroxypropylcellulose) (HPC)): 102 % of control
- T/C (dose: 11.0 mg/kg/injection, schedule: Q01DX009 (ip), vehicle: Klucel (hydroxypropylcellulose) (HPC)): 118 % of control
- T/C [12]: 108 % of control
- T/C [13]: 114 % of control
- T/C (dose: 25.0 mg/kg/injection, schedule: Q04DX003 (ip), vehicle: Klucel (hydroxypropylcellulose) (HPC)): 112 % of control
- T/C (dose: 37.5 mg/kg/injection, schedule: Q01DX009 (ip), vehicle: Klucel (hydroxypropylcellulose) (HPC)): 163 % of control
- T/C [14]: 93 % of control
- T/C (dose: 50.0 mg/kg/injection, schedule: Q04DX003 (ip), vehicle: Klucel (hydroxypropylcellulose) (HPC)): 116 % of control
- T/C [15]: 116 % of control

Structure (SMILES): C1CC2OC2CC1C1CO1 (stereo not drawn)
- T/C [9]: 105 % of control
- T/C [10]: 109 % of control
- T/C [11]: 102 % of control

Structure (SMILES): Cc1nc2cc(Cc3ccccc3)ccc2o1
- T/C (dose: 100.0 mg/kg/injection, schedule: Q04DX003 (ip), vehicle: saline sonified): 107 % of control
- T/C (dose: 200.0 mg/kg/injection, schedule: Q04DX003 (ip), vehicle: saline sonified): 105 % of control
- T/C (dose: 400.0 mg/kg/injection, schedule: Q04DX003 (ip), vehicle: saline sonified): 107 % of control

Structure (SMILES): O=c1s[se]c2ccccc12
- T/C (dose: 1.56 mg/kg/injection, schedule: Q01DX009 (ip), vehicle: Klucel (hydroxypropylcellulose) (HPC)): 100 % of control
- T/C (dose: 3.12 mg/kg/injection, schedule: Q01DX009 (ip), vehicle: Klucel (hydroxypropylcellulose) (HPC)): 100 % of control
- T/C (dose: 6.25 mg/kg/injection, schedule: Q01DX009 (ip), vehicle: Klucel (hydroxypropylcellulose) (HPC)): 107 % of control
- T/C [12]: 111 % of control
- T/C [13]: 102 % of control
- T/C [14]: 91 % of control

Structure (SMILES): O=C(CC1(O)CCCCC1)Nc1ccccc1
- T/C (dose: 50.0 mg/kg/injection, schedule: Q01DX001 (ip), vehicle: saline): 100 % of control
- T/C [16]: 97 % of control
- T/C [17]: 101 % of control
- T/C [18]: 97 % of control

Structure (SMILES): CC(=O)c1cccc(NC(=O)Nc2ccc(Nc3ccccc3)cc2)c1
- T/C (dose: 100.0 mg/kg/injection, schedule: Q01DX009 (ip), vehicle: other): 103 % of control
- T/C (dose: 200.0 mg/kg/injection, schedule: Q01DX009 (ip), vehicle: other): 101 % of control
- T/C (dose: 400.0 mg/kg/injection, schedule: Q01DX009 (ip), vehicle: other): 93 % of control

Structure (SMILES): CC1(C)COc2cc([N+](=O)[O-])cc(N)c2N1
- T/C (dose: 75.0 mg/kg/injection, schedule: Q01DX001 (ip), vehicle: saline): 107 % of control
- T/C (dose: 75.0 mg/kg/injection, schedule: Q04DX003 (ip), vehicle: acetone): 110 % of control
- T/C (dose: 150.0 mg/kg/injection, schedule: Q01DX001 (ip), vehicle: saline): 100 % of control
- T/C (dose: 150.0 mg/kg/injection, schedule: Q04DX003 (ip), vehicle: acetone): 95 % of control
- T/C (dose: 300.0 mg/kg/injection, schedule: Q01DX001 (ip), vehicle: saline): 96 % of control
- T/C (dose: 300.0 mg/kg/injection, schedule: Q04DX003 (ip), vehicle: acetone): 101 % of control

Structure (SMILES): CC(C)(C)C1=CC(C)([N+](=O)[O-])C=C(C(C)(C)C)C1=O
- T/C [5]: 88 % of control
- T/C [6]: 89 % of control
- T/C [7]: 88 % of control

Structure (SMILES): O=C1C(N2CCOCC2)=C(N2CC2)C(=O)C(N2CCOCC2)=C1N1CC1
- T/C (dose: 0.19 mg/kg/injection, schedule: Q04DX003 (ip), vehicle: saline): 92 % of control and 102 % of control
- T/C (dose: 0.37 mg/kg/injection, schedule: Q04DX003 (ip), vehicle: saline): 94 % of control and 107 % of control
- T/C (dose: 0.75 mg/kg/injection, schedule: Q01DX009 (ip), vehicle: saline): 105 % of control and 118 % of control
- T/C (dose: 0.75 mg/kg/injection, schedule: Q04DX003 (ip), vehicle: saline): 107 % of control and 113 % of control
- T/C (dose: 1.5 mg/kg/injection, schedule: Q01DX009 (ip), vehicle: saline): 120 % of control
- T/C (dose: 1.5 mg/kg/injection, schedule: Q04DX003 (ip), vehicle: saline): 105 % of control
- T/C (dose: 3.0 mg/kg/injection, schedule: Q04DX003 (ip), vehicle: saline): 122 % of control
- T/C (dose: 3.12 mg/kg/injection, schedule: Q01DX001 (ip), vehicle: saline): 86 % of control
- T/C (dose: 12.0 mg/kg/injection, schedule: Q04DX003 (ip), vehicle: saline): 115 % of control

Structure (SMILES): COc1ccc(C(=O)N=C(c2ccccc2)c2ccccc2)cc1
- T/C (dose: 100.0 mg/kg/injection, schedule: Q01DX009 (ip), vehicle: saline with Tween-80): 95 % of control
- T/C [15]: 92 % of control
- T/C (dose: 200.0 mg/kg/injection, schedule: Q01DX009 (ip), vehicle: saline with Tween-80): 98 % of control
- T/C [19]: 97 % of control
- T/C (dose: 400.0 mg/kg/injection, schedule: Q01DX009 (ip), vehicle: saline with Tween-80): 93 % of control
- T/C [20]: 95 % of control

Structure (SMILES): COc1ccc(OC(=O)Nc2ccccc2Cl)cc1
- T/C (dose: 100.0 mg/kg/injection, schedule: Q01DX009 (ip), vehicle: Klucel (hydroxypropylcellulose) (HPC)): 94 % of control
- T/C [15]: 95 % of control
- T/C (dose: 200.0 mg/kg/injection, schedule: Q01DX009 (ip), vehicle: Klucel (hydroxypropylcellulose) (HPC)): 103 % of control
- T/C [19]: 104 % of control
- T/C (dose: 400.0 mg/kg/injection, schedule: Q01DX009 (ip), vehicle: Klucel (hydroxypropylcellulose) (HPC)): 103 % of control
- T/C [20]: 101 % of control

Structure (SMILES): O=C(OCc1ccccc1CN1CCCCC1)c1ccccc1
- T/C (dose: 25.0 mg/kg/injection, schedule: Q04DX002 (ip), vehicle: Klucel (hydroxypropylcellulose) (HPC)): 97 % of control
- T/C [3]: 101 % of control
- T/C [4]: 97 % of control

Structure (SMILES): CN(C)CCSCCO
- T/C (dose: 100.0 mg/kg/injection, schedule: Q04DX002 (ip), vehicle: saline): 107 % of control
- T/C (dose: 200.0 mg/kg/injection, schedule: Q04DX002 (ip), vehicle: saline): 95 % of control
- T/C (dose: 400.0 mg/kg/injection, schedule: Q04DX002 (ip), vehicle: saline): 107 % of control

Structure (SMILES): NC1CCSCC1
- T/C [16]: 104 % of control
- T/C [17]: 96 % of control
- T/C [18]: 96 % of control
